Experimental data as given in US10065990B2, “Cyclic peptide compound, and preparation method, pharmaceutical composition and use thereof” (HANGZHOU GUANYU BIO-MEDICAL CO., LTD, priority 2013, dated 2018).
Like-named read-outs stand apart in the source and are kept apart here.

Assays:
HDAC7 = target: T1, HDAC7 (Homo sapiens, UniProt Q8WUI4); assay: HDAC biochemical activity measurement (fluorescent substrate deacetylation);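 as to all read-outs here: fluorogenic deacetylation assay using acetyl-lysine substrate at 20 µM, enzyme and compound incubated 30 min at 37 °C, then developer added, fluorescence read at 360/460 nm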; conditions: for IC50 HDAC7: 37° C. 30 minutes
T1 sequence (Q8WUI4 1-952): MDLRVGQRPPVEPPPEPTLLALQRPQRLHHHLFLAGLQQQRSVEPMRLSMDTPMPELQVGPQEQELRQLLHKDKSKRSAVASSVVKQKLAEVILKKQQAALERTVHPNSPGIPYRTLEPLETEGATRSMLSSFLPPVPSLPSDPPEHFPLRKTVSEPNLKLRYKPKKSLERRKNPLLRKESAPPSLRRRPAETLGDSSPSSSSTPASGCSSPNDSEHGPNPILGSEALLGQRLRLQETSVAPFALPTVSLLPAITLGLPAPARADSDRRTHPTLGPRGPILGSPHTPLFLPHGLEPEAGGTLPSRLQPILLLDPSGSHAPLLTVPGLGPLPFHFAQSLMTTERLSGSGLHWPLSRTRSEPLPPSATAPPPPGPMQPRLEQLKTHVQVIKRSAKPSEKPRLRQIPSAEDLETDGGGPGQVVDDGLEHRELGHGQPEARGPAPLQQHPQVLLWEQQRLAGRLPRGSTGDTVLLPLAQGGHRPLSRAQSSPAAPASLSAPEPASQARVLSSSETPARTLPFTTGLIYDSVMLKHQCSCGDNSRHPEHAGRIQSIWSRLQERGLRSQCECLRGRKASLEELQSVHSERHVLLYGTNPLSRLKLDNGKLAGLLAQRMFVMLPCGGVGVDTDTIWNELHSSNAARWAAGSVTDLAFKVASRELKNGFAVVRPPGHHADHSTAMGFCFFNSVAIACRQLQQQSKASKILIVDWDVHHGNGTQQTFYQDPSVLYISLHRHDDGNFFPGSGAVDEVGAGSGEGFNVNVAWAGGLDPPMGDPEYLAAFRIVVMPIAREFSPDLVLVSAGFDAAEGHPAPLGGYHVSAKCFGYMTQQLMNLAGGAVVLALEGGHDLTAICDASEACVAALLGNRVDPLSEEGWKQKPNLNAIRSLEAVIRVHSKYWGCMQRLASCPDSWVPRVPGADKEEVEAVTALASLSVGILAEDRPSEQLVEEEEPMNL

[1] = tested on: A549 (human lung cancer cells); assay: MTT cancer cell growth inhibition; format: cell-based; conditions: MTT, 72 hours incubation, read-out: GI50 A54
Description: (§1) MTT assay principle is yellow MTT can penetrate membrane into the cell, succinic dehydrogenase of the mitochondria in living cells can make exogenous MTT reduction of insoluble in water of blue-violet acicular formazan for crystallization and deposition in the cell, crystallization can be dissolved dimethyl sulfoxide (DMSO) solution, detected its absorbance at 490 nm/570 nm wavelength by enzyme-linked immunosorbent assay, which can reflect the number of cells.
(§2) Using DMEM+10% FBS culture medium or using 1640+10% FBS culture, respectively.
(§3) a) Cells were seeded in 96-well plates with the inoculation of 1500/well, 190 μl/hole, 37° C., 5% of CO2 incubator overnight;
(§4) b) The next day each well was added 10 μl of different drugs. The final concentration of drug was 10^−5˜10^−10M, three parallel holes; 37° C., 5% CO2 culture incubator for 72 hours incubation;
(§5) c) Per well was added 20 μl 5 mg/ml of MTT, 37° C., 5% CO2 culture incubator for 4 hours incubation;
(§6) d) The supernatant was discarded. Each well was added 100 μl of DMSO and oscillation;
(§7) e) 570 nm readings. Calculate cell viability. GI50 calculation based on the results.

[2] = tested on: BGC-823 (human gastric cancer cells); assay: MTT cancer cell growth inhibition; format: cell-based; conditions: MTT, 72 hours incubation, read-out: GI50 BG
Description: as §1, §2, §3, §4, §5, §6, §7

[3] = tested on: Bel-7402 (human hepatoma cells); assay: MTT cancer cell growth inhibition; format: cell-based; conditions: MTT, 72 hours incubation, Bel-7402 cells, read-out: GI50 Bel-7402
Description: as §1, §2, §3, §4, §5, §6, §7

[4] = tested on: DU145 (human prostate cancer cells); assay: MTT cancer cell growth inhibition; format: cell-based; conditions: MTT, 72 hours incubation, read-out: GI50 Du1
Description: as §1, §2, §3, §4, §5, §6, §7

[5] = tested on: H1975 (non-small cell lung adenocarcinoma); assay: MTT cancer cell growth inhibition; format: cell-based; conditions: MTT, 72 hours incubation, H1975 cells, read-out: GI50 H1975
Description: as §1, §2, §3, §4, §5, §6, §7

[6] = tested on: HCC827 (human non-small cell lung cancer cells); assay: MTT cancer cell growth inhibition; format: cell-based; conditions: MTT, 72 hours incubation, HCC827 cells, read-out: GI50 HCC827
Description: as §1, §2, §3, §4, §5, §6, §7

[7] = tested on: HT1080 (human fibrosarcoma cells); assay: MTT cancer cell growth inhibition; format: cell-based; conditions: MTT, 72 hours incubation, read-out: GI50 HT1
Description: as §1, §2, §3, §4, §5, §6, §7

[8] = tested on: Hela (human cervical cancer cells); assay: MTT cancer cell growth inhibition; format: cell-based; conditions: MTT, 72 hours incubation, read-out: GI50 Hela
Description: as §1, §2, §3, §4, §5, §6, §7

[9] = tested on: Huh-7 (human hepatoma cells); assay: MTT cancer cell growth inhibition; format: cell-based; conditions: MTT, 72 hours incubation, Huh-7 cells, read-out: GI50 Huh-7
Description: as §1, §2, §3, §4, §5, §6, §7

[10] = tested on: K562 (human leukemia cells); assay: MTT cancer cell growth inhibition; format: cell-based; conditions: MTT, 72 hours incubation, K562 cells, read-out: GI50 K562
Description: as §1, §2, §3, §4, §5, §6, §7

[11] = tested on: KBM-5 (human chronic myelogenous leukemia); assay: MTT cancer cell growth inhibition; format: cell-based; conditions: MTT, 72 hours incubation, KBM-5 cells, read-out: GI50 KBM-5
Description: as §1, §2, §3, §4, §5, §6, §7

[12] = tested on: KBM5-T315I (human chronic myelogenous leukemia); assay: MTT cancer cell growth inhibition; format: cell-based; conditions: MTT, 72 hours incubation, KBM5-T315I cells, read-out: GI50 KBM5-T315I
Description: as §1, §2, §3, §4, §5, §6, §7

[13] = tested on: MCF-7 (human breast cancer cells); assay: MTT cancer cell growth inhibition; format: cell-based; conditions: 72 hours incubation, read-out: GI50 MCF
Description: as §1, §2, §3, §4, §5, §6, §7

[14] = tested on: MDA-MB-231 (breast cancer cells); assay: MTT cancer cell growth inhibition; format: cell-based
Description: as §1, §2, §3, §4, §5, §6, §7

[15] = tested on: MOLT-4 (human acute lymphoblastic leukemia cells); assay: MTT cancer cell growth inhibition; format: cell-based; conditions: MTT, 72 hours incubation, read-out: GI50 Mol
Description: as §1, §2, §3, §4, §5, §6, §7

[16] = tested on: N-87 (human gastric cancer cells); assay: MTT cancer cell growth inhibition; format: cell-based; conditions: MTT, 72 hours incubation, N-87 cells, read-out: GI50 N-87
Description: as §1, §2, §3, §4, §5, §6, §7

[17] = tested on: PANC-1 (Pac-1, human pancreatic cancer cells); assay: MTT cancer cell growth inhibition; format: cell-based; conditions: MTT, 72 hours incubation, read-out: GI50 PAN
Description: as §1, §2, §3, §4, §5, §6, §7

[18] = tested on: SGC-7901 (human gastric cancer cells); assay: MTT cancer cell growth inhibition; format: cell-based; conditions: MTT, 72 hours incubation, SGC-7901 cells, read-out: GI50 SGC-7901
Description: as §1, §2, §3, §4, §5, §6, §7

[19] = tested on: U937 (human leukemia cells); assay: MTT cancer cell growth inhibition; format: cell-based; conditions: MTT, 72 hours incubation, read-out: GI50 U93
Description: as §1, §2, §3, §4, §5, §6, §7

[20] = tested on: lncap (prostate cancer cells); assay: MTT cancer cell growth inhibition; format: cell-based; conditions: MTT, 72 hours incubation, read-out: GI50 lnca
Description: as §1, §2, §3, §4, §5, §6, §7

[21] = Homo sapiens, A549, 72 h, A549 cells
[22] = Homo sapiens, BGC-823, 72 h, BGC-823 cells
[23] = Homo sapiens, DU-145, 72 h, DU145 cells
[24] = Homo sapiens, HT-1080, 72 h, HT1080 cells
[25] = Homo sapiens, HeLa, 72 h, Hela cells
[26] = Homo sapiens, MCF7, 72 h, MCF-7 cells
[27] = Homo sapiens, MDA-MB-231, 72 h, read-out: GI50 MDA-MB-231, MTT, 72 hours incubation, MDA-MB-231 cells
[28] = Homo sapiens, MOLT-4, 72 h, MOLT-4 cells
[29] = Homo sapiens, PANC-1, 72 h, PANC-1 cells
[30] = Homo sapiens, U-937, 72 h, U937 cells
[31] = Homo sapiens, LNCaP, 72 h, lncap cells

| IC50 HDAC7 (HDAC7) | GI50 [1, 21] | GI50 [2, 22] | GI50 ([3]; Homo sapiens, Bel-7402, 72 h) | GI50 [4, 23] | GI50 ([5]; Homo sapiens, NCI-H1975, 72 h) | GI50 ([6]; Homo sapiens, HCC827, 72 h) | GI50 [7, 24] | GI50 [8, 25] | GI50 ([9]; Homo sapiens, Huh-7, 72 h) | GI50 ([10]; Homo sapiens, K562, 72 h) | GI50 ([11]; Homo sapiens, KBM5, 72 h) | GI50 ([12]; Homo sapiens, 72 h) | GI50 [13, 26] | GI50 [14, 27] | GI50 [15, 28] | GI50 ([16]; Homo sapiens, 72 h) | GI50 [17, 29] | GI50 ([18]; Homo sapiens, SGC-7901, 72 h) | GI50 [19, 30] | Compound | other results |
| --- | --- | --- | --- | --- | --- | --- | --- | --- | --- | --- | --- | --- | --- | --- | --- | --- | --- | --- | --- | --- | --- |
| no activity | 30 nM | 50 nM | 82 nM | 50 nM | 33 nM | 39 nM | 70 nM | 90 nM | 49 nM | 84 nM | 42 nM | 39 nM | 60 nM | 34 nM | 80 nM | 75 nM | 80 nM | 63 nM | 70 nM | C/C=C1\NC(=O)c2ncc(SC)c(n2)CNC(=O)C[C@@H](/C=C/CCSC(C)=O)OC(=O)[C@H](C)NC1=O [Compound 219] | GI50 [20, 31]: 60 nM |
| – | 60 nM | 30 nM | 42 nM | 20 nM | 63 nM | 53 nM | 20 nM | 20 nM | 55 nM | 35 nM | 66 nM | 81 nM | 40 nM | 38 nM | 70 nM | 36 nM | 50 nM | 49 nM | 30 nM | C/C=C1\NC(=O)c2cc(SCC)cc(n2)CNC(=O)C[C@@H](/C=C/CCSC(=O)CCCCCC)OC(=O)[C@H](C(C)C)NC1=O [Compound 251] | IC50 (μM) HDAC7 (HDAC7): no activity; GI50 [20, 31]: 90 nM |
| no activity | – | – | – | – | – | – | – | – | – | – | – | – | – | – | – | – | – | – | – | C/C=C1\NC(=O)c2cc(SC)cc(n2)CNC(=O)C[C@@H](/C=C/CCSC(C)=O)OC(=O)[C@H](C)NC1=O [Compound 214] | GI50 ([1]; A549 cells): 90 nM; GI50 ([2]; BGC-823 cells): 20 nM; GI50 [3]: 71 nM; GI50 ([4]; DU145 cells): 40 nM; GI50 [5]: 63 nM; GI50 [6]: 35 nM; GI50 ([7]; HT1080 cells): 40 nM; GI50 ([8]; Hela cells): 60 nM; GI50 [9]: 41 nM; GI50 [10]: 71 nM; GI50 [11]: 19 nM; GI50 [12]: 73 nM; GI50 ([13]; MCF-7 cells): 50 nM; GI50 ([14]; read-out: GI50 MDA-MB-231, MTT, 72 hours incubation, MDA-MB-231 cells): 15 nM; GI50 ([15]; MOLT-4 cells): 50 nM; GI50 [16]: 95 nM; GI50 ([17]; PANC-1 cells): 40 nM; GI50 [18]: 68 nM; GI50 ([19]; U937 cells): 50 nM; GI50 ([20]; lncap cells): 110 nM |
| no activity | – | – | 28 nM | – | 93 nM | 21 nM | – | – | 52 nM | 16 nM | 18 nM | 36 nM | – | 46 nM | – | 43 nM | – | 21 nM | – | C/C=C1\NC(=O)c2nc(ccc2F)CNC(=O)C[C@@H](/C=C/CCS)OC(=O)[C@H](CCCCN)NC1=O [Compound 116] | GI50 ([1]; Homo sapiens, A549, 72 h): 60 nM; GI50 ([2]; Homo sapiens, BGC-823, 72 h): 50 nM; GI50 ([4]; Homo sapiens, DU-145, 72 h): 20 nM; GI50 ([7]; Homo sapiens, HT-1080, 72 h): 50 nM; GI50 ([8]; Homo sapiens, HeLa, 72 h): 40 nM; GI50 ([13]; Homo sapiens, MCF7, 72 h): 60 nM; GI50 ([15]; Homo sapiens, MOLT-4, 72 h): 30 nM; GI50 ([17]; Homo sapiens, PANC-1, 72 h): 40 nM; GI50 ([19]; Homo sapiens, U-937, 72 h): 20 nM; GI50 ([20]; Homo sapiens, LNCaP, 72 h): 30 nM |
